Laboratory results published in patent publication US7799809B2, “Carboxamide compounds and their use as calpain inhibitors” (Abbott GmbH & Co. KG, priority 2006, dated 2010).

What was measured:
Format in all cases: biochemical
[1] = target: T1, cathepsin S (Homo sapiens, UniProt P25774); assay: Cathepsin S enzyme inhibition in vitro (kinetic fluorescence assay); conditions: recombinant human cathepsin S vs calpain I
T1 construct: purchased Calbiochem 219343; host or cells: E. coli
Summary of the method: (§1)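 Kinetic fluorescence (ex 390/em 460 nm) at room temperature in 50 mM MES, 2 mM EDTA, 0.05% Brij 35, 2.5 mM L-cysteine, pH 6.0. Cathepsin B (liver, 0.25 nM) with 100 μM Z-Phe-Arg-AMC; cathepsin L (liver, 1 nM) with 2 μM Z-Phe-Arg-AMC; recombinant E. coli cathepsin S (0.5 nM) with 20 μM Z-Val-Val-Arg-AMC. Ki via Cheng-Prusoff.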

[2] = target: T2, cathepsin B (Homo sapiens, UniProt P07858); assay: Cathepsin B enzyme inhibition in vitro (kinetic fluorescence assay); conditions: cathepsin B isolated from human liver vs calpain I
T2 construct: cathepsin B—isolated from human liver (Calbiochem #219362); purchased Calbiochem 219362; host or cells: human liver (tissue-derived)
Summary of the method: as §1

[3] = target: T3, cathepsin L (Homo sapiens, UniProt P07711); assay: Cathepsin L enzyme inhibition in vitro (kinetic fluorescence assay); conditions: cathepsin L isolated from human liver vs calpain I
T3 construct: cathepsin L—isolated from human liver (Calbiochem #219402); purchased Calbiochem 219402; host or cells: human liver (tissue-derived)
Summary of the method: as §1

[4] = target: T4, cathepsin K (Homo sapiens, UniProt P43235); assay: Cathepsin K enzyme inhibition in vitro (kinetic fluorescence assay); conditions: cathepsin K activated from recombinant human procathepsin K vs calpain I
T4 construct: purchased Calbiochem 342001; host or cells: E. coli
T4 sequence (P43235 115-329): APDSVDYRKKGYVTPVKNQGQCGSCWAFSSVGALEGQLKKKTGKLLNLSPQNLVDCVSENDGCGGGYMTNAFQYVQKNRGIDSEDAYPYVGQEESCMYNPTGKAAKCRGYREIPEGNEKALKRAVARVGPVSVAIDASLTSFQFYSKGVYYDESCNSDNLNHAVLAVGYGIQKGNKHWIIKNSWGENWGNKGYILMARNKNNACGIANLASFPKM

T1 sequence (P25774 115-331): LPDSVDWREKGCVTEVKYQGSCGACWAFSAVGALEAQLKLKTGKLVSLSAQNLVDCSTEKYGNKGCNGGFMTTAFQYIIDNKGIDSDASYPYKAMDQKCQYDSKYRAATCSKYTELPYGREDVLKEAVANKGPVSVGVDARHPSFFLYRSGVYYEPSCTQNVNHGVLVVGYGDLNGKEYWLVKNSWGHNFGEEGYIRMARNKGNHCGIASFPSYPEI
T3 sequence (P07711 114-333): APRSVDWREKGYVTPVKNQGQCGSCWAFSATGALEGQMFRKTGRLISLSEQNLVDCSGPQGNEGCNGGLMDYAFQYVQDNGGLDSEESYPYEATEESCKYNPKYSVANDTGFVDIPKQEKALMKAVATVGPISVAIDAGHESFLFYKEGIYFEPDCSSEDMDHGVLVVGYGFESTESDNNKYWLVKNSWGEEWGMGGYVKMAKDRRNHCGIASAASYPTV

Row | Compound | Sel cat. S: Ki(cathepsin S)/Ki(calpain) ratio [1] | Sel cat. B: Ki(cathepsin B)/Ki(calpain) ratio [2] | Sel cat. L: Ki(cathepsin L)/Ki(calpain) ratio [3] | Sel cat. K: Ki(cathepsin K)/Ki(calpain) ratio [4]
1 | COc1ccc(-c2ccn(-c3ncccc3C(=O)NC(Cc3ccccc3)C(=O)C(N)=O)n2)c(OC)c1 (centres unmarked) [Example 117, N-[3-Amino-2,3-dioxo-1-(phenylmethyl)propyl]-2-{3-[2,4-bis(methyloxy)phenyl]-1H-pyrazol-1-yl}pyridine-3-carboxamide] | ++ (++ means a Ki(cathepsin S)/Ki(calpain) ratio of ≧100) | ++ (++ means a Ki(cathepsin B)/Ki(calpain) ratio of ≧30) | ++ (++ means a Ki(cathepsin L)/Ki(calpain) ratio of ≧50) | ++ (++ means a Ki(cathepsin K)/Ki(calpain) ratio of ≧30)
2 | NC(=O)C(=O)C(Cc1ccccc1)NC(=O)c1cccnc1-n1ccc(-c2cccc(OC(F)(F)F)c2)n1 (centres unmarked) [Example 168, N-[3-Amino-2,3-dioxo-1-(phenylmethyl)propyl]-2-(3-{3-[(trifluoromethyl)oxy]phenyl}-1H-pyrazol-1-yl)pyridine-3-carboxamide] | ++ (++ means a Ki(cathepsin S)/Ki(calpain) ratio of ≧100) | + (+ means 10≦Ki(cathepsin B)/Ki(calpain)<30) | ++ (++ means a Ki(cathepsin L)/Ki(calpain) ratio of ≧50) | + (+ means 10≦Ki(cathepsin K)/Ki(calpain)<30)
3 | NC(=O)C(=O)C(Cc1ccccc1)NC(=O)c1cccnc1-n1ccc(-c2ccc(Cl)cc2Cl)n1 (centres unmarked) [Example 79, N-(3-Amino-1-benzyl-2,3-dioxopropyl)-2-[3-(2,4-dichlorophenyl)-1H-pyrazol-1-yl]nicotinamide] | ++ (++ means a Ki(cathepsin S)/Ki(calpain) ratio of ≧100) | ++ (++ means a Ki(cathepsin B)/Ki(calpain) ratio of ≧30) | ++ (++ means a Ki(cathepsin L)/Ki(calpain) ratio of ≧50) | ++ (++ means a Ki(cathepsin K)/Ki(calpain) ratio of ≧30)
4 | NC(=O)C(=O)C(Cc1ccc(F)cc1)NC(=O)c1cccnc1-n1ccc(-c2ccc(Cl)cc2Cl)n1 (centres unmarked) [Example 114, N-{-3-Amino-1-[(4-fluorophenyl)methyl]-2,3-dioxopropyl}-2-[3-(2,4-dichlorophenyl)-1H-pyrazol-1-yl]pyridine-3-carboxamide] | ++ (++ means a Ki(cathepsin S)/Ki(calpain) ratio of ≧100) | ++ (++ means a Ki(cathepsin B)/Ki(calpain) ratio of ≧30) | ++ (++ means a Ki(cathepsin L)/Ki(calpain) ratio of ≧50) | ++ (++ means a Ki(cathepsin K)/Ki(calpain) ratio of ≧30)
5 | NC(=O)C(=O)C(Cc1ccccc1)NC(=O)c1cccnc1-n1ccc(-c2cccc3c2OC(F)(F)O3)n1 (centres unmarked) [Example 119, N-[3-Amino-2,3-dioxo-1-(phenylmethyl)propyl]-2-[3-(2,2-difluoro-1,3-benzodioxol-4-yl)-1H-pyrazol-1-yl]pyridine-3-carboxamide] | ++ (++ means a Ki(cathepsin S)/Ki(calpain) ratio of ≧100) | ++ (++ means a Ki(cathepsin B)/Ki(calpain) ratio of ≧30) | ++ (++ means a Ki(cathepsin L)/Ki(calpain) ratio of ≧50) | ++ (++ means a Ki(cathepsin K)/Ki(calpain) ratio of ≧30)
6 | NC(=O)C(=O)C(Cc1ccccc1)NC(=O)c1cccnc1-n1ccc(-c2ccc(F)cc2F)n1 (centres unmarked) [Example 94, N-[3-Amino-2,3-dioxo-1-(phenylmethyl)propyl]-2-[3-(2,4-difluorophenyl)-1H-pyrazol-1-yl]pyridine-3-carboxamide] | ++ (++ means a Ki(cathepsin S)/Ki(calpain) ratio of ≧100) | ++ (++ means a Ki(cathepsin B)/Ki(calpain) ratio of ≧30) | ++ (++ means a Ki(cathepsin L)/Ki(calpain) ratio of ≧50) | + (+ means 10≦Ki(cathepsin K)/Ki(calpain)<30)
7 | COc1ccccc1-c1ccn(-c2ncccc2C(=O)NC(Cc2ccccc2)C(=O)C(N)=O)n1 (centres unmarked) [Example 90, N-[3-Amino-2,3-dioxo-1-(phenylmethyl)propyl]-2-{3-[2-(methyloxy)phenyl]-1H-pyrazol-1-yl}pyridine-3-carboxamide] | ++ (++ means a Ki(cathepsin S)/Ki(calpain) ratio of ≧100) | ++ (++ means a Ki(cathepsin B)/Ki(calpain) ratio of ≧30) | ++ (++ means a Ki(cathepsin L)/Ki(calpain) ratio of ≧50) | + (+ means 10≦Ki(cathepsin K)/Ki(calpain)<30)
8 | NC(=O)C(=O)C(Cc1ccccc1)NC(=O)c1cccnc1-n1cc(Cl)c(-c2ccc(F)cc2)n1 (centres unmarked) [Example 184, N-[3-Amino-2,3-dioxo-1-(phenylmethyl)propyl]-2-[4-chloro-3-(4-fluorophenyl)-1H-pyrazol-1-yl]pyridine-3-carboxamide] | ++ (++ means a Ki(cathepsin S)/Ki(calpain) ratio of ≧100) | + (+ means 10≦Ki(cathepsin B)/Ki(calpain)<30) | ++ (++ means a Ki(cathepsin L)/Ki(calpain) ratio of ≧50) | + (+ means 10≦Ki(cathepsin K)/Ki(calpain)<30)
9 | N-[3-Amino-2,3-dioxo-1-(phenylmethyl)propyl]-2-[3-(3,5-dichlorophenyl)-1H-pyrazol-1-yl]pyridine-3-carboxamide [Example 89] | ++ (++ means a Ki(cathepsin S)/Ki(calpain) ratio of ≧100) | + (+ means 10≦Ki(cathepsin B)/Ki(calpain)<30) | ++ (++ means a Ki(cathepsin L)/Ki(calpain) ratio of ≧50) | + (+ means 10≦Ki(cathepsin K)/Ki(calpain)<30)
10 | NC(=O)C(=O)C(Cc1cccc(F)c1)NC(=O)c1cccnc1-n1ccc(-c2ccccc2OC(F)(F)F)n1 (centres unmarked) [Example 162, N-{3-Amino-1-[(3-fluorophenyl)methyl]-2,3-dioxopropyl}-2-(3-{2-[(trifluoromethyl)oxy]phenyl}-1H-pyrazol-1-yl)pyridine-3-carboxamide] | ++ (++ means a Ki(cathepsin S)/Ki(calpain) ratio of ≧100) | ++ (++ means a Ki(cathepsin B)/Ki(calpain) ratio of ≧30) | ++ (++ means a Ki(cathepsin L)/Ki(calpain) ratio of ≧50) | ++ (++ means a Ki(cathepsin K)/Ki(calpain) ratio of ≧30)
11 | NC(=O)C(=O)C(Cc1ccc(F)cc1)NC(=O)c1cccnc1-n1ccc(-c2ccccc2)n1 (centres unmarked) [Example 123, N-{3-Amino-1-[(4-fluorophenyl)methyl]-2,3-dioxopropyl}-2-(3-phenyl-1H-pyrazol-1-yl)pyridine-3-carboxamide] | ++ (++ means a Ki(cathepsin S)/Ki(calpain) ratio of ≧100) | ++ (++ means a Ki(cathepsin B)/Ki(calpain) ratio of ≧30) | ++ (++ means a Ki(cathepsin L)/Ki(calpain) ratio of ≧50) | ++ (++ means a Ki(cathepsin K)/Ki(calpain) ratio of ≧30)
12 | NC(=O)C(=O)C(Cc1ccc(OCc2ccccc2)cc1)NC(=O)c1cccnc1-n1ccc(-c2ccccc2)n1 (centres unmarked) [Example 127, N-[3-Amino-2,3-dioxo-1-({4-[(phenylmethyl)oxy]phenyl}methyl)propyl]-2-(3-phenyl-1H-pyrazol-1-yl)pyridine-3-carboxamide] | ++ (++ means a Ki(cathepsin S)/Ki(calpain) ratio of ≧100) | ++ (++ means a Ki(cathepsin B)/Ki(calpain) ratio of ≧30) | ++ (++ means a Ki(cathepsin L)/Ki(calpain) ratio of ≧50) | ++ (++ means a Ki(cathepsin K)/Ki(calpain) ratio of ≧30)
13 | NC(=O)C(=O)C(Cc1ccccc1)NC(=O)c1cccnc1-n1ccc(-c2cccc3cccnc23)n1 (centres unmarked) [Example 160, N-[3-amino-2,3-dioxo-1-(phenylmethyl)propyl]-2-(3-quinolin-8-yl-1H-pyrazol-1-yl)pyridine-3-carboxamide] | ++ (++ means a Ki(cathepsin S)/Ki(calpain) ratio of ≧100) | ++ (++ means a Ki(cathepsin B)/Ki(calpain) ratio of ≧30) | ++ (++ means a Ki(cathepsin L)/Ki(calpain) ratio of ≧50) | ++ (++ means a Ki(cathepsin K)/Ki(calpain) ratio of ≧30)
14 | NC(=O)C(=O)C(Cc1ccccc1)NC(=O)c1cccnc1-n1ccc(-c2sccc2Cl)n1 (centres unmarked) [Example 109, N-[3-Amino-2,3-dioxo-1-(phenylmethyl)propyl]-2-[3-(3-chloro-2-thienyl)-1H-pyrazol-1-yl]pyridine-3-carboxamide] | ++ (++ means a Ki(cathepsin S)/Ki(calpain) ratio of ≧100) | ++ (++ means a Ki(cathepsin B)/Ki(calpain) ratio of ≧30) | ++ (++ means a Ki(cathepsin L)/Ki(calpain) ratio of ≧50) | ++ (++ means a Ki(cathepsin K)/Ki(calpain) ratio of ≧30)
